# According to patent US20250320496A1, “MODULATION OF ABCB11 GENE TRANSCRIPTION USING ANTISENSE OLIGONUCLEOTIDES TARGETING REGULATORY RNAS” (CAMP4 Therapeutics Corporation, priority 2022, published 2025):
# Strand notation (5' to 3'): a small letter for the sugar, then the base; units joined by * are phosphorothioate-linked, units joined directly phosphodiester-linked; [ ] holds rarer units or linkages, { } end groups; capitals alone tell only the bases. e = 2'-O-(2-methoxyethyl) (MOE); {TEG} = Teg-GalNAc conjugate; [5mC] = 5-methylcytosine
# Legend:
# bile acids = test: Liver-humanized FRG knockout mice, liver and serum bile acids; format: in vivo, mouse; conditions: second study, liver-humanized FRG knockout mice (FIG. 15B)
# Experimental: (§1) In a first in vivo study, female liver-humanized FRG® (Fah^−/−; Rag2^−/−; Il2rg^−/−) knockout mice (Yecuris™) were used to assess the efficacy of the human ABCB11 regRNA-targeting ASOs CO-3986 and CO-4535 in the context of cholestasis. The mice were grouped evenly based on albumin and body weight.
# A. First Study. Two groups of five mice were dosed with GalNAc3—CO-7378 (CO-3986 conjugated to GalNAc3) or GalNAc3—CO-7379 ([…]) respectively, control via subcutaneous (SC) injection on Days 0 and 7. One group of five mice was dosed with PBS control via SC injection on Days 0 and 7. A fourth group of five mice was treated with ursodeoxycholic acid (UDCA) via intraperitoneal (IP) injection on Days 14-21. […] On Day 21, the animals were euthanized for terminal harvest after fasting overnight and >350 μL of whole blood was processed to serum. 100 μL of whole blood was collected in the same manner as the previous bleeds, prior to euthanasia and final exsanguination. Harvested livers were perfused with cold PBS with the left lobe and remnant liver frozen separately after bile salt collection. A piece of the ileum tissue was removed and flushed with PBS and snap-frozen. The serum (two tubes for each animal, 15 μL and 25 μL, for each timepoint) was analyzed using LC-MS (Creative Proteomics) to assess bile acids and 7αC4 levels. The remaining samples collected were analyzed for total serum bile acid levels using a commercial kit.
# (§2) B. Second Study. In a second in vivo study was conducted to assess the ability of CO-11202 (CO-12367 conjugated with GalNAc3). Mice were dosed with […] on Days 0 and 7 via SC injection. One group of five mice were dosed with PBS control via SC injection on Days 0 and 7. One group of five mice received 10 mg/kg of obeticholic acid (OCA) via oral gavage daily for 21 days. Fasting blood was collected from the mice on Days 0, 7, 14 and 21 (collection performed prior to any SC injections) and processed to serum to analyze bile acid levels. On Day 21, mice were euthanized and livers and ileum tissue harvested and processed as described above.
# (§3) Frozen liver pieces were pulverized on dry ice and RNA extracted using TRIzol™ reagent. cDNA was generated and analyzed using qPCR to detect ABCB11 mRNA levels and other genes of interest as described above. Serum 7αC4 levels were detected using LC-MS (Creative Proteomics). Total serum bile acids were measured using the Total Bile Acid Fluorometric Assay Kit (Cell BioLabs). Liver bile acids were measured using the Total Bile Acid Fluorometric Assay Kit.
# mouse Abcb11 mRNA = test: Liver-humanized FRG knockout mice, mouse Abcb11 mRNA in liver; format: in vivo; conditions: second study, liver-humanized FRG knockout mice (FIG. 15A)
# Experimental: as §2, §3
# human ABCB11 mRNA = test: Liver-humanized FRG knockout mice, human ABCB11 mRNA in liver by qPCR; format: in vivo; conditions: second study, 10 mg/CO-12367 SC on Days 0 and 7
# Experimental: as §1
# A. First Study. Two groups of five mice were dosed with GalNAc3—CO-7378 (CO-3986 conjugated to GalNAc3) or GalNAc3—CO-7379 ([…]) respectively, control via subcutaneous (SC) injection on Days 0 and 7. One group of five mice was dosed with PBS control via SC injection on Days 0 and 7. […] The serum (two tubes for each animal, 15 μL and 25 μL, for each timepoint) was analyzed using LC-MS (Creative Proteomics) to assess bile acids and 7αC4 levels. The remaining samples collected were analyzed for total serum bile acid levels using a commercial kit. […]
# as §3
substance,measurement,setting,value
"CO-12367: GalNAc3 conjugate counterpart of CO-11202, dosed SC in liver-humanized mice (antisense eT*eG*eTeT*eT*eT*eG*e[5mC]eT*eT*eG*eG*eTe[5mC]*eA*eA*eG*eAeG*eG-{TEG})",serum bile acid levels,bile acids,decrease in serum bile acid levels
same,mouse Abcb11 expression,mouse Abcb11 mRNA,without affecting mouse Abcb11 expression
same,human ABCB11 expression,human ABCB11 mRNA,increased human ABCB11 expression
